Earlier results on 1 compound are cited in patent publication US9034622B2, “Preparation for photodynamic control of microorganisms and use thereof” (priority 2004, dated 2015).

For data set [1], the system named is isolated perfused heart. The settings on record: perfusate enriched with GSH.
Data set [2] concerns reperfusion-induced damage or the extent of the myocardial infarct. The settings on record: intravenous glutathione administration; pigs pre-treated with glutathione synthesis inhibitor; ischemia/reperfusion.

`N[C@@H](CCC(=O)N[C@@H](CS)C(=O)NCC(=O)O)C(=O)O` [glutathione, Glutathione]: the “recovery of ventricle function after ischemia and reperfusion” value in data set [1] is “better recovery of ventricle function”. Also, the “reperfusion-induced damage or extent of the myocardial infarct” value in data set [2] is “could be reduced”.
